Laboratory results published in patent US4532240A, “Diaminopyrimidines” (Warner-Lambert Company, priority 1983, dated 1985).

Key:
[1] = test system: P388 Leukemia; assay: In vivo lymphocytic leukemia P388 test in mice; design: species or system CD2 F1 mice; conditions: intraperitoneal, two single doses four days apart
Method: The in vivo lymphocytic leukemia P388 test is carried out using the test system of the United States National Cancer Institute. The animals used are either male or female CD2 F1 mice. There are six to seven animals per test group. The tumor transplant is by intraperitoneal injection of dilute ascitic fluid containing cells of lymphocytic leukemia P388. The test compounds are administered intraperitoneally in two single doses with a four-day interval between doses at various dose levels following tumor inoculation. The animals are weighed and survivors are recorded on a regular basis for 30 days. A ratio of survival time for treated (T)/control (C) animals is calculated. The criterion for efficacy is T/C×100>125%. The positive control compound in this test is 5-fluorouracil. See Cancer Chemotherapy Reports, Part 3, 3, 1 (1972) for a comprehensive discussion of the protocol.

[2] = test system: M. faecalis; assay: Antibacterial disk zone of inhibition, M. faecalis (as headed); type: cell-based, Streptococcus faecalis 05045; conditions: Enterococcus faecalis, read-out: Inhibition Zone diameter; for zone of inhibition at 100 µg/mL: 0.1 mg/ml; for zone of inhibition at 10 µg/mL: 0.01 mg/ml
Method: (§1) Vegetative bacterial isolates are maintained on agar slants or in liquid media, hereby designated as inoculum media. The cultures are transferred at regular intervals in such media. (See Table IV for the corresponding inoculum media of each culture.) The organisms are generally transferred either onto agar slants or into liquid inoculum media and incubated at 37° C. (at 28° C. with Xanthomonas sp.) overnight (18-20 hours).
(§2) The microbial cells from the overnight agar slants are then scraped off and suspended in saline solution (0.85% NaCl). The microbial concentrations are adjusted to a light transmission of 8.6% using a PerkinElmer Model 35 spectrophotometer (550 nm). For the organisms that are maintained in liquid media, one of two procedures is followed: (1) the culture suspension is first centrifuged at 5000 rpm for five minutes. The pellet is resuspended in 0.85% saline to 8.6% light transmittancy; (2) an aliquot of the culture suspension is to be added directly to the assay medium.
(§3) A given molten-agar assay medium, maintained in a flask at approximately 45° C., is inoculated with 0.16-10 ml of an appropriate cell or spore suspension per 100 ml of medium. Fifty ml of the inoculated medium is poured into a Bio-Assay dish (A/S Nunc; Gibco Laboratories Catalog Number 240835) and spread evenly across the bottom, then allowed to solidify at room temperature. Each agar dish is inverted and refrigerated until used.
(§4) The compounds or samples to be tested are dissolved in suitable solvents, e.g., alcohols, dimethylsulfoxide, or N,N-dimethylformamide. The samples are generally dissolved so that the final concentration of the solvent is <10%.* The compounds are tested at different concentrations: 3,000; 1,000; 500; 100; and 10 mcg/ml. Paper discs (12.7 mm diameter) saturated with a given concentration of test compound are placed onto the seeded agar dishes with a pair of forceps.
(§5) The disked agar dishes are incubated at 37° C. (28° C. for Xanthamonas sp.) for 18-20 hours. Active compounds show a zone of inhibition around the disc. The diameter of the zone is measured in mm. The zone diameter of active compounds ranges from a minimum of 13.5 mm to as high as 60 mm. The size of the zone diameter generally reflects the activity of the compound: the larger the zone the greater the activity.

[3] = test system: B. subtilis; assay: Antibacterial disk zone of inhibition, B. subtilis; type: cell-based, Bacillus subtilis 04555; conditions: Bacillus subtilis, read-out: Inhibition Zone diameter; for zone of inhibition at 100 µg/mL: 0.1 mg/ml; for zone of inhibition at 3000 µg/mL: 3.0 mg/ml
Method: as §1, §2
Isolate spore suspensions (Bacillus sp.) are maintained at 4° C. These suspensions serve as the inoculum media for assays.
as §3, §4, §5

[4] = test system: X. phaseoli; assay: Antibacterial disk zone of inhibition, X. phaseoli; type: cell-based, Xanthomonas phascoli 06002; conditions: Xanthomonas; 3.0 mg/ml; read-out: Inhibition Zone diameter
Method: as §1, §2, §3, §4, §5

[5] = test system: HCT-8 (human colon adenocarcinoma) cells; assay: In vitro activity against HCT-8 human colon adenocarcinoma cells; type: cell-based; conditions: HCT-8, 60-65 hours with compound, 37° C., read-out: ID50 against human colon adenocarcinoma
Method: HCT-8 (human colon adenocarcinoma) cells are trypsinized using Trypsin-EDTA. A single cell suspension is achieved by passing the cells through a 26 gauge needle with a 20 cc syringe. A cell suspension is prepared using RPMI 1640+10% FCS+50 μg/ml garamycin with a cell concentration of approximately 30,000 cells/ml. The cell suspension is dispensed in Linbro 24-well plates; 1 ml/well. The plates are incubated for approximately 48 hours at 37° C. in a 5% CO2 atmosphere. At this time test compounds are added in the appropriate concentration. Five μl of the 200 μg/ml stock solution is added to each well in a primary test. Ten μl of the appropriate dilution is added to each well for a titration test. The plates are reincubated an additional 60-65 hours at 37° C. in a 5% CO2 atmosphere. The test is read by lysing the cells using a mix of cationic surfactant, glacial acetic acid and sodium chloride. […] of the lysed cell suspension from each well is added to 8 ml of diluent. Each sample is read on the Coulter counter (ZBI model). The activity of each sample is measured as a percentage of the controls and the data is reported as ID50, that is the molar quantity of drug required to kill 50% of the tumor cells.

[6] = test system: L1210 cells; assay: In vitro antitumor screening on L1210 murine leukemia cell line (growth, Coulter counter); type: cell-based; conditions: Mus musculus, L1210, 72 h; three days, 37° C., 5% CO2; read-out: L1210 Leukemia in vitro ID50
Method: L1210 cells, a murine leukemia cell line, were grown in RPMI 1640 supplemented with 5% fetal bovine serum and gentamicin (50 μg/ml).
Drug dilutions were prepared in the appropriate solvent and 20 μl of each dilution were added to 24-well Linbro tissue culture plates, followed by the addition of M 2.0 ml of cell suspension containing 3×10^4cells per ml. Solvent and medium controls were included in each test. After incubation at 37° C. for three days in 5% CO2, the contents of each well were removed and the cells counted in a ZBI Coulter counter. Percent growth was calculated relative to the controls and the levels of drug activity were expressed as ID50 in moles per liter using probit paper.

[7] = test system: B. catarrhalis; assay: Antibacterial disk zone of inhibition, B. catarrhalis; type: cell-based, Branhamella catarrhalis 03596; conditions: Moraxella catarrhalis, read-out: Inhibition Zone diameter; for zone of inhibition at 100 µg/mL: 0.1 mg/ml; for zone of inhibition at 500 µg/mL: 0.5 mg/ml; for zone of inhibition at 3000 µg/mL: 3.0 mg/ml
Method: as §1, §2, §3, §4, §5

[8] = test system: S. lutea; assay: Antibacterial disk zone of inhibition, S. lutea (as headed); type: cell-based, Micrococcus luteus 05064; conditions: Micrococcus luteus, read-out: Inhibition Zone diameter; for zone of inhibition at 10 µg/mL: 0.01 mg/ml; for zone of inhibition at 3000 µg/mL: 3.0 mg/ml; for zone of inhibition at 100 µg/mL: 0.1 mg/ml
Method: as §1, §2, §3, §4, §5

SMILES	T/C × 100 ([1]; 6.25 mg/kg)	T/C × 100 ([1]; 12.5 mg/kg)	T/C × 100 ([1]; 25 mg/kg)	T/C × 100 ([1]; 50 mg/kg)	zone of inhibition at 100 µg/mL [2]	zone of inhibition at 100 µg/mL [3]	zone of inhibition at 3000 µg/mL [4]	IC50 [5]	IC50 [6]	zone of inhibition at 100 µg/mL [7]	zone of inhibition at 10 µg/mL [8]	zone of inhibition at 10 µg/mL [2]	zone of inhibition at 10 µg/mL ([3]; 0.01 mg/ml)	zone of inhibition at 500 µg/mL [7]	zone of inhibition at 3000 µg/mL [8]	zone of inhibition at 3000 µg/mL [3]	zone of inhibition at 100 µg/mL [8]	zone of inhibition at 3000 µg/mL [7]	zone of inhibition at 1000 µg/mL ([8]; 1.0 mg/ml)
CC(=O)c1ccc(N2CCN(c3c(C)nc(N)nc3N)CC2)cc1 [Example 5, 5-[4-(4-acetylphenyl)-1-piperazinyl]-6-methyl-2,4-pyrimidinediamine, hydrate (100:18)]	123%	144%	181%	250%	16 mm	23 mm	0 mm	510 nM	5 nM	24 mm	14 mm								
Cc1nc(N)nc(N)c1N1CCN(c2ccc(S(C)(=O)=O)cc2)CC1 [Example 9, 6-Methyl-5-[4-[4-(methylsulfonyl)phenyl]-1-piperazinyl]-2,4-pyrimidinediamine, hydrate (10:2)]	128%	131%	140%	198%			0 mm	61 nM	5.6 nM			18 mm	29 mm	14 mm	0 mm				
CCc1nc(N)nc(N)c1N1CCN(c2ccc(C(=O)O)cc2)CC1 [Example 11, 4-[4-(2,4-Diamino-6-ethyl-5-pyrimidinyl)-1-piperazinyl]benzoic acid]						18 mm	0 mm	570 nM	10 nM		16 mm	19 mm		27 mm					
CCCc1nc(N)nc(N)c1N1CCN(c2ccc(C(=O)O)cc2)CC1 [Example 15, 4-[4-(2,4-Diamino-6-propyl-5-pyrimidinyl)-1-piperazinyl]benzoic acid]							0 mm	280 nM	43 nM			15 mm		19 mm		0 mm	16 mm		
CCCc1nc(N)nc(N)c1N1CCN(c2ccc(C(=O)OCC)cc2)CC1 [Example 18, 4-[4-(2,4-Diamino-6-propyl-5-pyrimidinyl)-1-piperazinyl]benzoic acid, ethyl ester]			120%	149%			0 mm	210 nM	9.3 nM	15 mm		15 mm				0 mm	16 mm		
Cc1nc(N)nc(N)c1N1CCN(c2ccc(C#N)cc2)CC1 [Example 19, 5-[4-(4-cyanophenyl)-1-piperazinyl]-6-methyl-2,4-pyrimidinediamine]					15 mm		0 mm	> 1000 nM	1500 nM						0 mm	0 mm		0 mm	
CCCc1nc(N)nc(N)c1N1CCN(c2ccc(C(=O)NC(CCC(=O)O)C(=O)O)cc2)CC1 (stereo not drawn) [drawing 24]					16 mm		0 mm									0 mm		18 mm	16 mm
